Among the data in PubChem BioAssay (NCI) are GI50 and TGI values, retold here.

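Growth conditions: 96-well plates. Treatment: test compound, 48 hours, 5 concentrations. Analysis: linear interpolation between bracketing concentrations; unreached endpoints set to highest concentration. Abbreviation: GI50, concentration required for 50% inhibition of growth. TGI is the concentration that stops growth completely.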 Where only a bound is given, the exact number is not on record here.

Among the test systems are NCI-H226 lung; RPMI-8226 leukemia; UACC-62 melanoma; BT-549 breast; SNB-75 CNS; M14 melanoma; SF-539 CNS; HCC-2998 colon; MDA-MB-231 breast; OVCAR-4 ovarian.
Holding throughout (test): DTP human tumour cell line panel, 48 h

`N#C/C(C(=S)Nc1ccccc1)=C1/NN=C2c3ccccc3C(=O)NN21`: the GI50 in the assay on NCI-H226 lung was 49.6 µM; with RPMI-8226 leukemia it was 32.3 µM; in the assay with UACC-62 melanoma, 31.5 µM; with BT-549 breast, 24.3 µM; with SNB-75 CNS, 16.6 µM; in the assay with M14 melanoma it was 19.3 µM. For the same compound, the GI50 was 18.7 µM in the assay on SF-539 CNS, 24.1 µM in the assay with HCC-2998 colon, 29.5 µM in the assay with MDA-MB-231 breast and 26.2 µM with OVCAR-4 ovarian. The concentration for total growth inhibition (TGI) with NCI-H226 lung was above 100 µM; with RPMI-8226 leukemia, above 100 µM; in the assay with UACC-62 melanoma, above 100 µM; in the assay on BT-549 breast, 80 µM; in the assay on SNB-75 CNS, 43.5 µM; in the assay with M14 melanoma it was 40.6 µM. In addition, the total growth inhibition concentration (TGI) was 40.9 µM in the assay on SF-539 CNS, above 100 µM in the assay with HCC-2998 colon, above 100 µM in the assay on MDA-MB-231 breast and 91.2 µM in the assay with OVCAR-4 ovarian.
